Measured values from patent US6887827B2, “Combinations of herbicidal aromatic carboxylic acids and safeners” (Bayer CropScience GmbH, priority 2002, dated 2005).

Tested on: Triticum aestivum (wheat)
Assay: Post-emergence crop plant selectivity field trial: visually scored damage to wheat
Assay type: in vivo
Settings: wheat at 3-tiller growth stage, 39 days after treatment, average of three trials
Description: 1. Post-Emergence Effect on Weeds and Crop Plant Selectivity (Field Trials) Crop plants were grown outdoors on plots under natural outdoor conditions, and seeds or rhizome pieces of typical harmful plants were laid out or the natural weed growth was utilized. Treatment with the compositions according to the invention was carried out after the harmful plants had emerged and the crop plants were at the growth stage stated below. After the application, the effect of the composition was scored visually by comparison with untreated controls.

Compound: COc1c(Cl)ccc(Cl)c1C(=O)O [(A1), 3,6-dichloro-2-methoxybenzoic acid]
- Phytotox (%) on TRZAS (140 g ai/ha): 27%
- Phytotox (%) on TRZAS (210 g ai/ha): 25%
- Phytotox (%) on TRZAS (280 g ai/ha): 27%

Compound: CCOC(=O)C1=NN(c2ccc(Cl)cc2Cl)C(C)(C(=O)OCC)C1 (centres unmarked) [(B1.1.1), ethyl 1-(2,4-dichlorophenyl)-5-(ethoxycarbonyl)-5-methyl-2-pyrazoline-3-carboxylate]
- Phytotox (%) on TRZAS (50 g ai/ha): 0%
- Phytotox (%) on TRZAS (120 g ai/ha): 0%
